Test results: PubChem BioAssay (NCI)
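Briefly, cells in 96-well plates were exposed to five compound concentrations for 48 h, and endpoints were estimated by linear interpolation. TGI marks complete inhibition of growth.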

Legend:
Assay in all cases: DTP human tumour cell line panel, 48 h
[1] = system: HCT-116 colon
[2] = system: RXF 393 renal
[3] = system: MDA-MB-435
[4] = system: T-47D breast
[5] = system: UACC-257 melanoma
[6] = system: HCC-2998 colon
[7] = system: OVCAR-5 ovarian
[8] = system: NCI-H522 lung
[9] = system: SF-539 CNS
[10] = system: SK-MEL-2 melanoma
[11] = system: KM12 colon
[12] = system: IGROV1 ovarian
[13] = system: SK-MEL-5 melanoma
[14] = system: HOP-62 NSCLC
[15] = system: CAKI-1 renal
[16] = system: A549 NSCLC
[17] = system: MDA-N
[18] = system: MALME-3M melanoma
[19] = system: MCF7 breast
[20] = system: MOLT-4 leukemia
[21] = system: OVCAR-3 ovarian
[22] = system: EKVX NSCLC
[23] = system: OVCAR-4 ovarian
[24] = system: SF-268 CNS
[25] = system: SK-OV-3 ovarian
[26] = system: SNB-19 CNS
[27] = system: SK-MEL-28 melanoma
[28] = system: COLO 205 colon
[29] = system: HT29 colon
[30] = system: LOX IMVI melanoma
[31] = system: UO-31 renal
[32] = system: NCI-H460 lung
[33] = system: OVCAR-8 ovarian
[34] = system: U251 CNS
[35] = system: HCT-15 colon
[36] = system: M14 melanoma
[37] = system: DU-145 prostate
[38] = system: SN12C renal
[39] = system: 786-0 renal
[40] = system: BT-549 breast
[41] = system: SW-620 colon
[42] = system: NCI/ADR-RES ovarian
[43] = system: SF-295 CNS
[44] = system: ACHN renal
[45] = system: HL-60(TB) leukemia
[46] = system: MDA-MB-231 breast
[47] = system: TK-10 renal
[48] = system: NCI-H23 lung
[49] = system: UACC-62 melanoma
[50] = system: SNB-75 CNS
[51] = system: HS 578T breast
[52] = system: CCRF-CEM leukemia
[53] = system: PC-3 prostate
[54] = system: K-562 leukemia
[55] = system: NCI-H226 lung
[56] = system: HOP-92 NSCLC
[57] = system: A498 renal

CCOP(=O)(OCC)OC1c2[nH]ccc2-c2cc(C(=O)OC)[nH]c2C1OC (stereo not given)
TGI [1]: > 100 µM
TGI [2]: > 100 µM
TGI [3]: > 100 µM
TGI [4]: > 100 µM
TGI [5]: > 100 µM
TGI [6]: > 100 µM
TGI [7]: > 100 µM
TGI [8]: > 100 µM
TGI [9]: > 100 µM
TGI [10]: > 100 µM
TGI [11]: > 100 µM
TGI [12]: > 100 µM
TGI [13]: > 100 µM
TGI [14]: > 100 µM
TGI [15]: > 100 µM
TGI [16]: > 100 µM
TGI [17]: > 100 µM
TGI [18]: > 100 µM
TGI [19]: > 100 µM
TGI [20]: > 100 µM
TGI [21]: > 100 µM
TGI [22]: > 100 µM
TGI [23]: > 100 µM
TGI [24]: > 100 µM
TGI [25]: > 100 µM
TGI [26]: > 100 µM
TGI [27]: > 100 µM
TGI [28]: > 100 µM
TGI [29]: > 100 µM
TGI [30]: > 100 µM
TGI [31]: > 100 µM
TGI [32]: > 100 µM
TGI [33]: > 100 µM
TGI [34]: > 100 µM
TGI [35]: > 100 µM
TGI [36]: > 100 µM
TGI [37]: > 100 µM
TGI [38]: > 100 µM
TGI [39]: > 100 µM
TGI [40]: > 100 µM
TGI [41]: > 100 µM
TGI [42]: > 100 µM
TGI [43]: > 100 µM
TGI [44]: > 100 µM
TGI [45]: > 100 µM
TGI [46]: > 100 µM
TGI [47]: > 100 µM
TGI [48]: > 100 µM
TGI [49]: > 100 µM
TGI [50]: > 100 µM
TGI [51]: > 100 µM
TGI [52]: > 100 µM
TGI [53]: > 100 µM
TGI [54]: > 100 µM

CCCCC1C=Cn2c(=O)oc3c(OC(C)C)c(OC(C)C)c(O)c1c32 (stereo not given)
TGI [1]: 34.9 µM
TGI [3]: 26.8 µM
TGI [4]: 27 µM
TGI [5]: 41.7 µM
TGI [7]: 34.2 µM
TGI [8]: 24.7 µM
TGI [9]: 38.7 µM
TGI [10]: 37.7 µM
TGI [11]: 27.4 µM
TGI [13]: 27.8 µM
TGI [14]: 38 µM
TGI [15]: 37.5 µM
TGI [55]: 27.5 µM
TGI [16]: 46.6 µM
TGI [17]: 55.5 µM
TGI [19]: 29.2 µM
TGI [20]: 27.8 µM
TGI [21]: 30.6 µM
TGI [22]: 83.1 µM
TGI [23]: 42.8 µM
TGI [24]: 44.9 µM
TGI [25]: 84.3 µM
TGI [26]: 68.2 µM
TGI [27]: 39.3 µM
TGI [28]: 30.3 µM
TGI [29]: 29.2 µM
TGI [56]: 47.2 µM
TGI [30]: 27.4 µM
TGI [31]: 27.8 µM
TGI [32]: 29.6 µM
TGI [33]: 29.5 µM
TGI [34]: 29.4 µM
TGI [57]: 32.3 µM
TGI [35]: 31.4 µM
TGI [36]: 46.3 µM
TGI [37]: 34.2 µM
TGI [38]: 49.1 µM
TGI [39]: 48.6 µM
TGI [40]: 34.7 µM
TGI [41]: 27.2 µM
TGI [43]: 40 µM
TGI [44]: > 100 µM
TGI [45]: 22.8 µM
TGI [46]: 33.1 µM
TGI [47]: 31.4 µM
TGI [48]: 32.6 µM
TGI [49]: 28.8 µM
TGI [50]: 47.5 µM
TGI [51]: 67 µM
TGI [52]: 25.6 µM
TGI [53]: > 100 µM
